Measured values reported in US20130177546A1, “METHOD FOR ENHANCING EFFICACY AND SELECTIVITY OF CANCER CELL KILLING BY DNA DAMAGING AGENTS” (MAINE INSTITUTE FOR HUMAN GENETICS AND HEALTH, priority 2011, published 2013).

Key:
Type in all cases: cell-based
[1] = tested on: SK-Br-3 (p53-mutant) cells; experiment: Clonogenic survival assay after DNA damage, SK-Br-3 cells expressing Arm1 or control shRNA; conditions: for cells surviving: 0.0025% MMS; for survival: 0.5 mM DOX
Description: (§1) MCF7 and SK-Br-3 cells were obtained from ATCC and maintained in DMEM or McCoys 5A supplemented with 10% FBS and antibiotics at 37° C., 5% CO2. A human Flag-tagged Arm1, Rev1, and p21 expression construct (Origene) were transiently transfected into SK-Br-3 cells with Fugene 6 (Roche) and extracts generated after 24 h. Lentiviral shRNA particles were obtained from Open Biosystems and stably expressing clones selected with puromycin and confirmed by GFP expression and Q-PCR (FIG. 10). […] Surviving colonies were stained with methylene blue and counted 2 weeks after treatments.
(§2) The results from this example are shown in FIG. 3. a, Arm1 promotes PCNA methyl esterification following DNA damage. PCNA was analyzed by 2D-PAGE immunoblotting in SK-Br-3 and MCF7 cells expressing Arm1 or non-targeting (control) shRNA in the absence of DNA damage or 4 h following Dox treatment or UV irradiation. b, PCNA-dependent methyltransferase activities are alter in shRNA expressing SK-Br-3 and MCF7 cells. WCE were assayed for PCNA-dependent carboxyl methyltransferase activity in the presence of His-PCNA ([…]) and average activities shown (±S.E.M.). Significance was determined using a two-tailed t-test. c, DNA damage sensitivity in Arm1 knockdown cells is related to p53 status. MCF7 (p53 wild-type) and SK-Br-3 (p53-mutant) cells were exposed to increasing levels of Dox and UV and survival determined by clonogenic survival. Average results from three independent experiments are presented ±SD. d, Arm1 knockdown promotes DNA repair. DNA repair rates were determined in shRNA expressing SK-Br-3 and MCF7 cells using host cell reactivation assay. Cells were transfected with UV-irradiated reporter plasmids and average repair rates were determined after 24 h. Average results from independent experiments are presented (±S.E.M.). Significance was determined with a two-tailed t-test.
In addition to PCNA modification in knock-down cells, we examined cell survival following DNA damage (FIG. 4b). […] In MCF7 cells with knocked-down Arm1 expression 47% of cells survived 0.5 mM DOX compared to 15% survival in the control cells (FIG. 4b). Similar results were consistently observed in response to UV with 39% of the Arm1 knock-down cells surviving 25 J/m^2 compared to 19% in the control. […] Additionally, because ˜50% of tumours harbour p53 mutations and knock-down of Arm1 expression in p53-mutant breast tumours appeared to sensitize the cells to DNA damage, inhibition of Arm1 may ultimately allow us to more effectively target tumour cells.

[2] = tested on: MCF7 (p53 wild-type) cells; experiment: Clonogenic survival assay after DNA damage, MCF7 cells expressing Arm1 or control shRNA
Description: as §1, §2
In addition to PCNA modification in knock-down cells, we examined cell survival following DNA damage (FIG. 4b). […]

p21^WAF1/CIP1 = experiment: p21 expression in Dox-treated MCF7 cells (SDS-PAGE, immunoblot); conditions: MCF7 cells following Dox treatment
Description: The results from this example are shown in FIG. 2. a, Doxorubicin (Dox) promotes PCNA methyl esterification in MCF7 cells. Whole cell extracts (WCE) from cultures treated with Dox ([…]) were resolved by 2D-PAGE followed by PCNA immunoblotting (IB). The basic-shifted PCNA isoform (ME-PCNA) is identified with an arrow. b, PCNA-dependent methyltransferase activity is altered following Dox treatment. Dox treated MCF7 WCE were assayed for PCNA-dependent activity in triplicate using the vapour diffusion assay, and average activities are presented ±S.E.M. Significance was determined using a two-tailed t-test. c, Dox induces p21 expression in MCF7 cells. Extracts were separated by SDS-PAGE and immunoblotted for p21^Waf1/Cip1. d, p21 binding promotes PCNA methyl esterification. Untreated MCF7 extracts were incubated with GST, GST-p21 (full-length), and GST-p21(PIP) proteins bound to glutathione Sepharose for 2 h at 4° C. prior to 2D-PAGE and PCNA immunoblotting. e The p21-induced basic shift is a result of PCNA methyl esterification. p21(PIP) peptide was covalently coupled to CH-Sepharose and used to affinity purify PCNA from MCF7 whole cell extracts. Purified fractions were separated by 2D-PAGE and stained with colloidal Coomassie blue. Spots were excised from the gel, digested with trypsin, and analyzed by LC-MS/MS. […]

Row | SMILES | cells surviving ([1]; SK-Br-3 Arm1 knock-down cells) [%] | cells surviving ([1]; SK-Br-3 control cells) [%] | survival of Arm1 knock-down cells compared to control cells ([2]; MCF7 Arm1 knock-down cells, response to MMS) | increased expression of p21^WAF1/CIP1 (p21^WAF1/CIP1) [fold] | survival ([1]; SK-Br-3 cells with knock-down of Arm1 expression) [%] | survival ([1]; SK-Br-3 control cells) [%] | cells survived ([2]; MCF7 cells with knocked-down Arm1 expression, 0.5 mM DOX) [%] | survival ([2]; MCF7 control cells, 0.5 mM DOX) [%]
1 | COS(C)(=O)=O [MMS] | 4 | 12 | enhanced survival |  |  |  |  | 
2 | COc1cccc2c1C(=O)c1c(O)c3c(c(O)c1C2=O)C[C@@](O)(C(=O)CO)C[C@@H]3O[C@H]1C[C@H](N)[C@H](O)[C@H](C)O1 [DOX, doxorubicin] |  |  |  | > 27 | 3 | 18 | 47 | 15
